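Values below derive from 48-hour exposures of cells grown in 96-well plates, with endpoints linearly interpolated between the two concentrations bracketing the appropriate inhibition level. TGI denotes the concentration required for complete inhibition of growth.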
What was measured:
Experiment in all cases: NCI tumour cell line growth inhibition, 48 h
786-0 renal = test system: 786-0 renal
A498 renal = test system: A498 renal
A549 NSCLC = test system: A549 NSCLC
ACHN renal = test system: ACHN renal
BT-549 breast = test system: BT-549 breast
CAKI-1 renal = test system: CAKI-1 renal
CCRF-CEM leukemia = test system: CCRF-CEM leukemia
COLO 205 colon = test system: COLO 205 colon
DU-145 prostate = test system: DU-145 prostate
EKVX NSCLC = test system: EKVX NSCLC
HCC-2998 colon = test system: HCC-2998 colon
HCT-116 colon = test system: HCT-116 colon
HCT-15 colon = test system: HCT-15 colon
HL-60(TB) leukemia = test system: HL-60(TB) leukemia
HOP-62 NSCLC = test system: HOP-62 NSCLC
HOP-92 NSCLC = test system: HOP-92 NSCLC
HS 578T breast = test system: HS 578T breast
HT29 colon = test system: HT29 colon
IGROV1 ovarian = test system: IGROV1 ovarian
KM12 colon = test system: KM12 colon
LOX IMVI melanoma = test system: LOX IMVI melanoma
M14 melanoma = test system: M14 melanoma
MALME-3M melanoma = test system: MALME-3M melanoma
MCF7 breast = test system: MCF7 breast
MDA-MB-231 breast = test system: MDA-MB-231 breast
MDA-MB-435 = test system: MDA-MB-435
MDA-N = test system: MDA-N
MOLT-4 leukemia = test system: MOLT-4 leukemia
NCI-H226 lung = test system: NCI-H226 lung
NCI-H23 lung = test system: NCI-H23 lung
NCI-H460 lung = test system: NCI-H460 lung
NCI-H522 lung = test system: NCI-H522 lung
NCI/ADR-RES ovarian = test system: NCI/ADR-RES ovarian
OVCAR-3 ovarian = test system: OVCAR-3 ovarian
OVCAR-4 ovarian = test system: OVCAR-4 ovarian
OVCAR-5 ovarian = test system: OVCAR-5 ovarian
OVCAR-8 ovarian = test system: OVCAR-8 ovarian
PC-3 prostate = test system: PC-3 prostate
RXF 393 renal = test system: RXF 393 renal
SF-268 CNS = test system: SF-268 CNS
SF-295 CNS = test system: SF-295 CNS
SF-539 CNS = test system: SF-539 CNS
SK-MEL-2 melanoma = test system: SK-MEL-2 melanoma
SK-MEL-28 melanoma = test system: SK-MEL-28 melanoma
SK-OV-3 ovarian = test system: SK-OV-3 ovarian
SN12C renal = test system: SN12C renal
SNB-19 CNS = test system: SNB-19 CNS
SNB-75 CNS = test system: SNB-75 CNS
SW-620 colon = test system: SW-620 colon
T-47D breast = test system: T-47D breast
TK-10 renal = test system: TK-10 renal
U251 CNS = test system: U251 CNS
UACC-257 melanoma = test system: UACC-257 melanoma
UACC-62 melanoma = test system: UACC-62 melanoma
UO-31 renal = test system: UO-31 renal

Structure (SMILES): CCOC(=O)/C=C\c1c(Cl)n(-c2ccccc2)c(=O)n(-c2ccccc2)c1=O
- TGI (786-0 renal): 39.6 µM
- TGI (A498 renal): 50.8 µM
- TGI (A549 NSCLC): 60.1 µM
- TGI (ACHN renal): 35.1 µM
- TGI (BT-549 breast): 36.1 µM
- TGI (CAKI-1 renal): 35.7 µM
- TGI (CCRF-CEM leukemia): 58.7 µM
- TGI (COLO 205 colon): 34.6 µM
- TGI (DU-145 prostate): 34.9 µM
- TGI (EKVX NSCLC): 48.5 µM
- TGI (HCC-2998 colon): 33.2 µM
- TGI (HCT-116 colon): 54.9 µM
- TGI (HCT-15 colon): 39.7 µM
- TGI (HL-60(TB) leukemia): 23.4 µM
- TGI (HOP-62 NSCLC): 40 µM
- TGI (HOP-92 NSCLC): 36 µM
- TGI (HS 578T breast): 65.2 µM
- TGI (HT29 colon): 38.4 µM
- TGI (IGROV1 ovarian): 36.2 µM
- TGI (KM12 colon): 35.8 µM
- TGI (LOX IMVI melanoma): 50.6 µM
- TGI (M14 melanoma): 33.7 µM
- TGI (MALME-3M melanoma): 44 µM
- TGI (MCF7 breast): 46 µM
- TGI (MDA-MB-231 breast): 36.3 µM
- TGI (MDA-MB-435): 44.8 µM
- TGI (MDA-N): 31.8 µM
- TGI (MOLT-4 leukemia): 87.2 µM
- TGI (NCI-H226 lung): 50.8 µM
- TGI (NCI-H23 lung): 41.7 µM
- TGI (NCI-H460 lung): 34.1 µM
- TGI (NCI-H522 lung): 46.5 µM
- TGI (NCI/ADR-RES ovarian): 72.7 µM
- TGI (OVCAR-3 ovarian): 36.1 µM
- TGI (OVCAR-4 ovarian): > 100 µM
- TGI (OVCAR-5 ovarian): 36.9 µM
- TGI (OVCAR-8 ovarian): 34.7 µM
- TGI (PC-3 prostate): 33.3 µM
- TGI (RXF 393 renal): 32.9 µM
- TGI (SF-268 CNS): 44.7 µM
- TGI (SF-295 CNS): 40.2 µM
- TGI (SF-539 CNS): 31.8 µM
- TGI (SK-MEL-2 melanoma): 33.5 µM
- TGI (SK-MEL-28 melanoma): 41.1 µM
- TGI (SK-OV-3 ovarian): 37.2 µM
- TGI (SN12C renal): 36.4 µM
- TGI (SNB-19 CNS): 31.6 µM
- TGI (SNB-75 CNS): 29.2 µM
- TGI (SW-620 colon): 61.6 µM
- TGI (T-47D breast): 42.2 µM
- TGI (TK-10 renal): 32.3 µM
- TGI (U251 CNS): > 100 µM
- TGI (UACC-257 melanoma): 35.5 µM
- TGI (UACC-62 melanoma): 34.8 µM
- TGI (UO-31 renal): 33.2 µM

Source: PubChem BioAssay (NCI)
